Source: patent US12479794B2, “Acetophenone oxime compound and application thereof” (Medshine Discovery Inc., priority 2020, dated 2025)
Marks after values point to notes of the source that are not given here.

Key:
[1] = Metabolite identification after incubation in human liver microsomes with NADPH; type: in vitro ADME; settings: 10 μM, 37° C., 1 hour
Procedure: Assay Example 4: Analysis and Identification of Metabolites of the Compound in Human Liver Microsome and Hepatocyte Incubation System
By using high-resolution mass spectrometry, the metabolite produced by the incubation of compound 32B in human liver microsomes and human hepatocytes was found, and identified for its structure; the percentage content of compound 32B and its metabolite was calculated by using LC-UV; and the possible biotransformation pathway of compound 32B in human liver microsomes and human hepatocytes in vitro was studied.
Compound 32B (10 μM) was incubated in a system containing both of human liver microsomes and NADPH at 37° C. for 60 min. 7-ethoxycoumarin (7-EC, 10 μM) was used as a positive control to evaluate the enzymatic metabolic activity in the liver microsome incubation system. The incubated sample was analyzed by LC-UV-HRMS. The structure of each metabolite was resolved and identified based on its primary and secondary mass spectrometry signals and/or comparison with a standard. The relative percentage of the UV-integrated peak area of each metabolite was given through data collected from the sample by LC-UV-HRMS, and the possible structure of the metabolite and its possible metabolic pathway in various genera of liver microsomes were inferred from the mass spectrometry information of the metabolite.

[2] = Pharmacokinetic evaluation in SD rats (iv and oral); type: in vivo, Sprague Dawley rats; settings: 1 mg/kg
Procedure: Assay Example 2: Pharmacokinetic Evaluation of Compounds in Rats
Object of the assay: To evaluate the in vivo pharmacokinetics of the compounds in SD rats
Sprague Dawley rats (male, 200-300 g, 7-9 weeks old, Shanghai SLAC)
The pharmacokinetic characteristics of the compounds in rodents after intravenous injection and oral administration were assayed according to the standard protocol. In the assay, the candidate compounds were formulated into clear solutions and administered to rats by single intravenous injection and oral administration. The vehicle for intravenous injection and oral administration was DMSO and 10% hydroxypropyl β-cyclodextrin in water (DMSO:10% hydroxypropyl β-cyclodextrin in water=5:95). Whole blood samples were collected within 48 hours, and centrifuged at 3000 g for 15 minutes. The supernatant was separated to give plasma samples. 4 times the volume of acetonitrile solution containing internal standard was added to precipitate protein. The resulting mixture was centrifuged and the supernatant was taken out. An equal volume of water was added and the mixture was centrifuged. The supernatant was taken out, and injected as a sample to quantitatively analyze the plasma drug concentration by LC-MS/MS analysis method. The pharmacokinetic parameters, such as peak concentration, time to peak, clearance rate, half-life, area under drug-time curve, bioavailability, etc., were calculated.

CC(=NOCc1ccc(OC(C)C)c(C(F)(F)F)c1)c1ccc2c(c1)CCC2N1CC(C(=O)O)C1 (single isomer, unassigned) [Compound 32B]
Metabolites detected [1]: no other metabolite was detected | Relative abundance of the original drug [1]: 100.00% | Half life T1/2 (PO) ([2]; iv 1.0 mg/kg only (head prints PO)): 8.3 h | Area under drug-time curve AUC0-last iv ([2]; iv 1.0 mg/kg): 7483* nM · hr | Clearance rate CL ([2]; iv 1.0 mg/kg): 3.97 mL/min/kg | Distribution in tissue Vdss ([2]; iv 1.0 mg/kg): 2.7 L/kg
